Measured values as given in PubChem BioAssay (NCI).
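How tested: cells in 96-well plates exposed to compound for 48 hours at five concentrations. Abbreviation: GI50, concentration required for 50% inhibition of growth. TGI marks complete inhibition of growth.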

Tests used:
Assay in all cases: NCI-60 cell line screen, 48 h
OVCAR-8 ovarian = tested on: OVCAR-8 ovarian
SF-295 CNS = tested on: SF-295 CNS
SK-OV-3 ovarian = tested on: SK-OV-3 ovarian
U251 CNS = tested on: U251 CNS
DLD-1 colon = tested on: DLD-1 colon
DMS 114 small cell lung = tested on: DMS 114 small cell lung
HOP-18 NSCLC = tested on: HOP-18 NSCLC
KM20L2 colon = tested on: KM20L2 colon
LXFL 529 NSCLC = tested on: LXFL 529 NSCLC
M19-MEL melanoma = tested on: M19-MEL melanoma
DMS 273 small cell lung = tested on: DMS 273 small cell lung
SNB-78 CNS = tested on: SNB-78 CNS
XF 498 CNS = tested on: XF 498 CNS

Structure (SMILES) | TGI (OVCAR-8 ovarian) | TGI (SF-295 CNS) | TGI (SK-OV-3 ovarian) | TGI (U251 CNS) | other results
Cc1nnc(N)nc1C/C=C/C(C)Sc1ccc(Cl)cc1 (stereo unspecified) | > 56.5 µM | 11.8 µM | 21.9 µM | > 42 µM | –
O=C(O)CCC1(CCC(=O)O)CCCCCCCCC(CCC(=O)O)(CCC(=O)O)C(=O)C1=O | > 100 µM | > 100 µM | > 100 µM | > 100 µM | –
Cc1cnc2c(c1)C(=O)N(c1ccc(Br)cc1)S2(=O)=O | > 100 µM | > 100 µM | > 100 µM | > 100 µM | –
N#Cc1c2c(c(Nc3cccc(C(F)(F)F)c3)n3c1nc1ccccc13)CCCC2 | 34.1 µM | > 100 µM | 48 µM | 23.7 µM | –
COc1cc2cnc3c4cc(O)ccc4ccc3c2cc1OC | > 100 µM | > 100 µM | > 100 µM | > 100 µM | TGI (DLD-1 colon): > 100 µM; TGI (DMS 114 small cell lung): 39.4 µM; TGI (HOP-18 NSCLC): > 100 µM; TGI (KM20L2 colon): > 100 µM; TGI (LXFL 529 NSCLC): > 100 µM; TGI (M19-MEL melanoma): > 100 µM
CCCCCCc1cc2cc(-c3cn4ccccc4n3)c(=O)oc2cc1O | 28.5 µM | 34.1 µM | 26.5 µM | 10.2 µM | –
CCOC(OCC)[C@@H]1C[C@@H]2N(O[C@H](OC3CCCC3(c3ccccc3)c3ccccc3)[C@H](OC(C)=O)[C@@]2(CC)Cc2ccc(OC)c(OC)c2)O1 (stereo partly specified) | – | > 100 µM | > 100 µM | > 100 µM | –
Cc1c2c(n3c(nc4ccccc43)c1C#N)NCC2 | > 10 µM | > 10 µM | > 10 µM | > 10 µM | –
COc1c(N2CCCCC2)c2c(=O)c3ccccc3oc2c2c3ccccc3n(C)c12 | > 100 µM | > 100 µM | > 100 µM | > 100 µM | –
CC(C)(C)C1CCC2c3c([nH]c4ccccc34)C3C(=O)N(c4cc(Cl)ccc4Cl)C(=O)C3C2C1 (stereo unspecified) | > 100 µM | > 100 µM | > 100 µM | – | –
CC(=O)OC1CC2C(=O)CC1(C)C2(C)C (stereo unspecified) | > 100 µM | > 100 µM | > 100 µM | > 100 µM | –
O=C1NC(NNc2ccccc2)=N/C1=C\c1ccco1 | 32.7 µM | > 100 µM | > 100 µM | 39.8 µM | –
CCOC(=O)c1cc(C2CCN(Cc3ccccc3)C2=O)c(C(=O)/C=C(/C)N)[nH]1 (stereo unspecified) | > 100 µM | > 100 µM | > 100 µM | > 100 µM | –
Cc1ccc(/C=C2\CCS(=O)(=O)c3ccccc3C2=O)cc1 | 30.7 µM | 40.5 µM | 46.3 µM | 30.8 µM | –
CCCC1(N2C(=O)c3ccc4c5c(ccc(c35)C2=O)N(C2(CCC)CCCCC2)C4=O)CCCCC1 | > 100 µM | > 100 µM | > 100 µM | > 100 µM | –
C=C1C(=O)O[C@H]2C1C[C@H](O)/C(C)=C/CC[C@@]1(C)O[C@H]21 (stereo partly specified) | 37.6 µM | 82.5 µM | > 100 µM | > 100 µM | –
CC(Cn1c(=O)oc2ccccc21)N(C)C (stereo unspecified) | > 100 µM | > 100 µM | > 100 µM | > 100 µM | –
N#C/C(=C\c1ccccc1F)C(=O)c1ccccc1 | > 100 µM | > 100 µM | > 100 µM | > 100 µM | TGI (DMS 114 small cell lung): > 100 µM; TGI (DMS 273 small cell lung): > 100 µM; TGI (KM20L2 colon): > 100 µM; TGI (LXFL 529 NSCLC): > 100 µM; TGI (M19-MEL melanoma): > 100 µM; TGI (SNB-78 CNS): > 100 µM; TGI (XF 498 CNS): > 100 µM

Structure (SMILES) | TGI (OVCAR-8 ovarian) | TGI (SF-295 CNS) | TGI (SK-OV-3 ovarian) | TGI (U251 CNS) | other results
Cc1ccc2nc(-c3nccn3C)cc(C(=O)NC(C)CN(C)C)c2c1 (stereo unspecified) | > 100 µM | – | – | > 100 µM | –
C[C@@]12C[C@@H](c3ccccc3O1)N1CCCSC1=N2 | > 100 µM | > 100 µM | > 100 µM | > 100 µM | –
Cn1cc(-c2csc(-c3cn(CCCN4CCCCC4)c4ccc(Br)cc34)n2)c2cccnc21 | – | – | 3.9 µM | – | GI50 (SK-OV-3 ovarian): 1.92 µM
COc1c(-c2ccc(F)cc2)oc2c(CC(=O)O)cccc2c1=O | > 100 µM | > 100 µM | > 100 µM | > 100 µM | –
COC(=O)CCc1cc(OC)c2oc(-c3ccc(OC)c(OC)c3)c(CO)c2c1 | > 100 µM | > 100 µM | > 100 µM | > 100 µM | –
[O-][N+]1=C(c2ccccc2)/C(=C2/C(c3ccccc3)=[N+]([O-])c3ccccc32)Cc2ccccc21 | 35.6 µM | 42.9 µM | > 100 µM | 38.7 µM | –
O=C(N/N=C/c1cc(Cl)cc(Cl)c1[OH2+])c1ccncc1.O=S(=O)([O-])[O-].[Fe+2] | > 100 µM | 35.3 µM | > 100 µM | – | TGI (KM20L2 colon): 36.3 µM
O=C(Nc1ccccc1)c1cc2cc(CCl)ccc2oc1=O | > 100 µM | > 100 µM | > 100 µM | > 100 µM | –
COc1cccc2c1C(=O)c1c(O)c3c(c(O)c1C2=O)CC(O)(C(C)=O)CC3OC1OC(COC(C)=O)C(OC(C)=O)C(OC(C)=O)C1OC(C)=O (stereo unspecified) | 37.2 µM | 62.8 µM | > 100 µM | 27.5 µM | –
Clc1ccc2c(c1)CC1C[N+]3=C(CCCCC3)C1=C2 (stereo unspecified) | > 100 µM | > 100 µM | > 100 µM | > 100 µM | –
CC(C)C1CCC(=O)CC1CCCCC1CC(=O)CC1O[Si](C)(C)C(C)(C)C (stereo unspecified) | 13 µM | 25.5 µM | 25.7 µM | 5.84 µM | –
O=C(N/N=C\c1ccc(Cl)cc1)Nc1cccc2ccccc12 | > 40.8 µM | 6.2 µM | 6.75 µM | 10.1 µM | –
CCOC(=O)NC(C(F)(F)F)(C(F)(F)F)P(=O)(OCC)OCC | > 100 µM | > 100 µM | > 100 µM | 79.5 µM | –
COc1cc(C2SCC(=O)N2c2ccc(Cl)cc2)cc(OC)c1OC (stereo unspecified) | > 100 µM | > 100 µM | > 100 µM | > 100 µM | –
CC(=O)O[C@H]1C(=O)[C@@]2(C)[C@H]([C@H](OC(=O)c3ccccc3)[C@]3(O)C[C@H](OC(=O)[C@H](O)[C@@H](NC(=O)OC(C)(C)C)c4ccco4)C(C)=C1C3(C)C)[C@]1(OC(C)=O)CO[C@@H]1C[C@@H]2O | > 50 µM | < 0.005 µM | 7.38 µM | > 16.1 µM | –
CN(C)C1(N(C)C)Oc2c(c(=O)n(C)c(=O)n2C)C(c2ccc(F)cc2)C1(F)F (stereo unspecified) | – | > 100 µM | > 100 µM | > 100 µM | –
O=C1/C(=C/c2cccc([N+](=O)[O-])c2)Cc2ccccc21 | > 100 µM | > 100 µM | > 100 µM | > 100 µM | –
